Measurements reported in ChEMBL document CHEMBL3351924, “Detailed analysis and follow-up studies of a high-throughput screening for indoleamine 2,3-dioxygenase 1 (IDO1) inhibitors” (Eur J Med Chem, 2014).
≈ marks a conversion by molar mass, not a printed value. One block for each molecule: values may come before it.

Key:
[1] = biological target: T1, Indoleamine 2,3-dioxygenase 1 (Homo sapiens, UniProt P14902); assay: Inhibition of IDO1 (unknown origin) using L-tryptophan substrate incubated for 60 mins in presence of 0.01% Triton-X by HPLC
T1 sequence (P14902 whole entry): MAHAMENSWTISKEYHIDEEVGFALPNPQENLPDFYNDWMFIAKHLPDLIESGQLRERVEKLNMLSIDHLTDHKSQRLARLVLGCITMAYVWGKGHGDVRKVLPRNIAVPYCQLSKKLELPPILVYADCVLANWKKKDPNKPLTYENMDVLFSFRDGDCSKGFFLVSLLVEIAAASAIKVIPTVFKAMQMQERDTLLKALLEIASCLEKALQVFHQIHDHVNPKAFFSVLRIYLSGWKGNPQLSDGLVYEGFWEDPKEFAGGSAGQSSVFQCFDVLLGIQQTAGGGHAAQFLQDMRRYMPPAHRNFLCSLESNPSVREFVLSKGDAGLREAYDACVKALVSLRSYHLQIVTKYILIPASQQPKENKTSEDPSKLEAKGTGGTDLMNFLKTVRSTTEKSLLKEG

[2] = Solubility of the compound in pH 6.5 phosphate buffer containing 5% DMSO; settings: phosphate buffer containing 5% DMSO
[3] = biological target: T1, Indoleamine 2,3-dioxygenase 1; assay: Inhibition of IDO1 (unknown origin) using L-tryptophan substrate incubated for 60 mins by HPLC
[4] = biological target: Indoleamine 2,3-dioxygenase 1 (Mus musculus, UniProt P28776); assay: Inhibition of mouse IDO1 expressed in mouse P815B cells using L-tryptophan substrate incubated for 18 hrs by HPLC based cellular assay; type: cell-based
Chain of Indoleamine 2,3-dioxygenase 1 (Mus musculus, UniProt P28776) (P28776 whole entry): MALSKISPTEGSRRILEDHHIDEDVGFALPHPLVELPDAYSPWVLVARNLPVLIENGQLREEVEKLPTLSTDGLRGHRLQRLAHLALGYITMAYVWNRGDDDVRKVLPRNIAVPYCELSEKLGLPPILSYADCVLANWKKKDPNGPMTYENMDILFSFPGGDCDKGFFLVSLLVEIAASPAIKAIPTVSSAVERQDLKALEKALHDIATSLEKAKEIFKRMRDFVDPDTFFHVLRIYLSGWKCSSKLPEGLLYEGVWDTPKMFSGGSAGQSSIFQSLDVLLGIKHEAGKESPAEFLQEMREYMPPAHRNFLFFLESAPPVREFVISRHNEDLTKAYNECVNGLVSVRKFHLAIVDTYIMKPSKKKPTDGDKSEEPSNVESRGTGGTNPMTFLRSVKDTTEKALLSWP

[5] = biological target: Tryptophan 2,3-dioxygenase (Mus musculus, UniProt P48776); assay: Inhibition of mouse TDO expressed in mouse P815B cells using L-tryptophan substrate incubated for 24 hrs by HPLC based cellular assay; type: cell-based; settings: p815b
Chain of Tryptophan 2,3-dioxygenase (P48776 whole entry): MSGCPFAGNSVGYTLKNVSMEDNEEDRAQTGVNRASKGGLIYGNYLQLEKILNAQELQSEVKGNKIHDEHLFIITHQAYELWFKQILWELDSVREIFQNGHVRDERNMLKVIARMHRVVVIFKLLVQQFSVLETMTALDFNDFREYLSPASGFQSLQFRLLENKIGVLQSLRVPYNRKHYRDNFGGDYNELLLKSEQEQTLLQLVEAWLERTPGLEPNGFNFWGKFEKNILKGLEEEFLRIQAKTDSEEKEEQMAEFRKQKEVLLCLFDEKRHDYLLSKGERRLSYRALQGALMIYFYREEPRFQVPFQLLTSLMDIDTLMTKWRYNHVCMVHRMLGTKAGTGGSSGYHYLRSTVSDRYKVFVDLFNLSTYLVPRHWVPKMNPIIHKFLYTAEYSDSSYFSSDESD

[6] = Cytotoxicity against mouse P815B cells after 24 hrs by MTS/PMS assay; settings: P815B cells
[7] = biological target: T1, Indoleamine 2,3-dioxygenase 1; assay: Inhibition of IDO1 (unknown origin) using L-tryptophan substrate incubated for 60 mins in presence of 5 mM GSH by HPLC

Compound: OC(Cn1ccnc1)c1ccccc1 (stereo not given)
IC50 [1]: Not Active | solubility [2]: > 1000 µM

Compound: N=C(N)SCc1nc(-c2ccc(Cl)cc2)no1
IC50 ([3]; read-out: IC50): 0.89 µM | IC50 ([1]; read-out: IC50): 1.2 µM | IC50 ([4]; read-out: IC50): 2.1 µM | IC50 [5]: Not Active | CC50 at 24 h [6]: 10 µM | solubility [2]: 1000 µM (≈ 269 µg/mL)

Compound: NC(=S)N/N=C1\CCc2ccccc21
IC50 [3]: Not Active | solubility [2]: 1000 µM (≈ 205 µg/mL)

Compound: c1ccc(-n2ccnc2)cc1
IC50 [1]: Not Active | solubility [2]: > 1000 µM

Compound: COC(=O)/C(C#N)=C(\C#N)c1ccc(Br)o1
IC50 ([3]; read-out: IC50): 0.71 µM | IC50 ([4]; p815b): Not Active | IC50 [5]: Not Active | CC50 at 24 h [6]: 5 µM | IC50 [7]: 7.1 µM | solubility [2]: 100 µM (≈ 28.1 µg/mL)

Compound: N#CC(C#N)=C1c2cc(S(N)(=O)=O)cc([N+](=O)[O-])c2-c2c1cc(S(N)(=O)=O)cc2[N+](=O)[O-]
IC50 ([3]; read-out: IC50): 1 µM | IC50 ([1]; read-out: IC50): 0.96 µM | IC50 ([4]; p815b): Not Active | IC50 [5]: Not Active | CC50 at 24 h [6]: > 25 µM | IC50 [7]: 1.6 µM | solubility [2]: 250 µM (≈ 119 µg/mL)

Compound: COC(=O)/C(C#N)=C1/C(=O)Nc2ccccc21
IC50 ([3]; read-out: IC50): 1.8 µM | IC50 ([4]; p815b): Not Active | IC50 [5]: Not Active | CC50 at 24 h [6]: > 25 µM | IC50 [7]: 130 µM | solubility [2]: 100 µM (≈ 22.8 µg/mL)

Compound: N#CC(C(=O)Nc1cccc(C(F)(F)F)c1)C(=S)Nc1ccccc1Cl (stereo not given)
IC50 ([3]; read-out: IC50): 7 µM | IC50 ([1]; read-out: IC50): 6.3 µM | IC50 ([4]; p815b): Not Active | IC50 [5]: Not Active | CC50 at 24 h [6]: > 25 µM | IC50 [7]: 71 µM | solubility [2]: 1000 µM (≈ 398 µg/mL)

Compound: NNC(=O)c1nn(-c2ccccc2)c(=O)c2c(N)scc12
IC50 ([3]; read-out: IC50): 13 µM | IC50 ([1]; read-out: IC50): 15 µM | IC50 ([4]; p815b): Not Active | IC50 [5]: Not Active | CC50 at 24 h [6]: > 25 µM | solubility [2]: 1000 µM (≈ 301 µg/mL)

Compound: Oc1c(Cl)cc(Cl)cc1/C=N/c1ccc2[nH]cnc2c1
solubility [2]: 10 µM (≈ 3.06 µg/mL)

Compound: NC(=S)N/N=C/c1c(F)cccc1Cl
solubility [2]: 250 µM (≈ 57.9 µg/mL)

Compound: N#C/C(=C\c1c[nH]cn1)S(=O)(=O)c1ccc(Cl)cc1
solubility [2]: 1000 µM (≈ 294 µg/mL)

Compound: Cn1cc(Cl)c(/C=C(\C#N)S(=O)(=O)C(C)(C)C)n1
solubility [2]: 1000 µM (≈ 288 µg/mL)

Compound: COCCCNC(=O)N/N=C/c1ccco1
solubility [2]: 1000 µM (≈ 225 µg/mL)

Compound: N#C/C(=C\c1c[nH]cn1)S(=O)(=O)c1cccs1
solubility [2]: 1000 µM (≈ 265 µg/mL)

Compound: COc1ccccc1NC(=S)N/N=C/c1ccco1
solubility [2]: 250 µM (≈ 68.8 µg/mL)

Compound: CSC1=NNC(c2ccccn2)S1 (stereo not given)
solubility [2]: 100 µM (≈ 21.1 µg/mL)

Compound: S=c1[nH]cc(-c2ccc(Cl)cc2)o1
IC50 [3]: Not Active | solubility [2]: 100 µM (≈ 21.2 µg/mL)

Second part, the molecule after the results:

IC50 ([1]; read-out: IC50): 130 µM | solubility [2]: > 1000 µM
Compound: OC(Cn1ccnc1)c1ccc(Cl)cc1Cl (stereo not given)

IC50 [1]: Not Active | solubility [2]: > 1000 µM
Compound: OC(Cn1cncn1)c1ccc(Cl)cc1Cl (stereo not given)

IC50 [1]: Not Active | solubility [2]: > 1000 µM
Compound: OC(Cn1ccnc1)c1ccc(Cl)cc1 (stereo not given)

solubility [2]: 250 µM (≈ 87.2 µg/mL)
Compound: Cc1cc(N/C=C(\C#N)S(=O)(=O)c2ccccc2Cl)nc(C)n1

IC50 [3]: Not Active | solubility [2]: 1000 µM (≈ 166 µg/mL)
Compound: Nc1n[nH]c2cc(O)[nH]c(=O)c12

solubility [2]: 1000 µM (≈ 225 µg/mL)
Compound: CN(C)/C=N/C(=S)Nc1cccc(F)c1

solubility [2]: 25 µM (≈ 8.66 µg/mL)
Compound: CCN(CC)c1ccc(NC(=O)C2CCCCC2)c(N(CC)CC)n1

IC50 [3]: Not Active | solubility [2]: 50 µM (≈ 19 µg/mL)
Compound: CC1=C(C#N)C(c2ccc(-c3ccc(Cl)cc3[N+](=O)[O-])o2)C(C#N)=C(C)N1

IC50 [3]: Not Active | solubility [2]: 50 µM (≈ 17.1 µg/mL)
Compound: NC(=O)N/N=C/c1ccc(-c2ccc(C(F)(F)F)cc2[N+](=O)[O-])o1

solubility [2]: 1000 µM (≈ 279 µg/mL)
Compound: Cc1cc(NS(=O)(=O)c2ccc(Cl)s2)no1

solubility [2]: 1000 µM (≈ 253 µg/mL)
Compound: CNC(=S)N/N=C/c1ccc(OC)c(OC)c1

solubility [2]: 1000 µM (≈ 255 µg/mL)
Compound: CC(C)(C)S(=O)(=O)/C(C#N)=C/c1ccsc1

solubility [2]: 50 µM (≈ 17.5 µg/mL)
Compound: Cc1nn(-c2ccccc2)nc1CNC(=O)c1ccc2nsnc2c1

solubility [2]: 50 µM (≈ 18.2 µg/mL)
Compound: Oc1nc(=S)ccn1-c1nc(-c2ccccc2)sc1-c1ccccc1

solubility [2]: 100 µM (≈ 30.3 µg/mL)
Compound: COc1ccc(-c2n[nH]cc2/C=C(/C#N)S(C)(=O)=O)cc1

IC50 [3]: Not Active | solubility [2]: 10 µM (≈ 3.17 µg/mL)
Compound: Oc1ccc(Br)cc1/C=N/c1ccc2[nH]nnc2c1

solubility [2]: 100 µM (≈ 31.1 µg/mL)
Compound: Clc1ccc(Sc2nc(-c3cccs3)ns2)cc1

solubility [2]: 1000 µM (≈ 226 µg/mL)
Compound: O=C(CC(=O)c1cccnc1)c1cccnc1

solubility [2]: 1000 µM (≈ 180 µg/mL)
Compound: Cc1cc(C)n2[nH]c(=S)nc2n1
